Among the data in ChEMBL document CHEMBL3870324, “Asnovolins A-G, Spiromeroterpenoids Isolated from the Fungus Aspergillus novofumigatus, and Suppression of Fibronectin Expression by Asnovolin E” (J Nat Prod, 2016) are inhibition values, retold here.

For assay [1], the species on record is Homo sapiens. As to the kind of experiment: Inhibition of fibronectin expression in HNDF at 25 uM after 24 hrs by Western blot analysis relative to control. The class given is functional. (In general: In western blotting, separated proteins are transferred to a membrane and probed.)
The species named for assay [2] is Homo sapiens. As to the kind of experiment: Inhibition of fibronectin expression in HNDF after 24 hrs by Western blot analysis. Format: functional.

In the case of `C=C(C)[C@@H]1CC[C@H](C)[C@@]2(C[C@@]3(C)C(=C(C)C(=O)[C@@H](C(=O)OC)[C@@H]3C)O2)[C@@]1(C)CCC(=O)OC`, the inhibition in the assay listed under Homo sapiens [1] was 87%; in the assay filed under Homo sapiens [2] it was “Dose-dependent effect”.

The inhibition is the percentage by which the read-out fell short of the control.
